{"source": "ChEMBL document CHEMBL1201862", "about": "“PubChem BioAssay data set” (2004)", "key": {"[1]": {"assay": "Luminescence Cell-Based Dose Confirmation HTS to Identify Activators of 5'UTR Stem-Loop Driven Alpha-Synuclein mRNA Translation in H4 Neuroglioblastoma Cells. [Related pubchem assays: 1829 (Project Summary), 1814 (Primary HTS)]", "assay_type": "functional"}, "[2]": {"assay": "Luminescence Cell-Based Dose Response HTS to Identify Activators of Luciferase Translation or Activity in H4 […] Cells. [Related pubchem assays: 1829 (Project Summary), 1814 (Primary HTS)]", "assay_type": "functional"}, "[3]": {"system": "Streptococcus sp. 'group A'", "assay": "Streptococcus pyogenes SK(-)GAS viability under kanamycin – luminescence, BacTiterGlo, confirmation, counter-screen for streptokinase expression inhibitor project, dose response (AID 1900)", "assay_type": "functional, organism-based"}, "H4": {"system": "H4", "assay": "Luminescence Cell-Based Dose Response HTS to Identify Activators of 5'UTR Stem-Loop Driven Prion Protein mRNA Translation in H4 Neuroglioblastoma Cells. [Related pubchem assays: 1829 (Project Summary), 1814 (Primary HTS)]", "assay_type": "functional", "details": "Homo sapiens"}, "Streptokinase A": {"target": "T1, Streptokinase A (Streptococcus pyogenes serotype M1, UniProt P10520)", "T1 sequence (P10520 whole entry)": "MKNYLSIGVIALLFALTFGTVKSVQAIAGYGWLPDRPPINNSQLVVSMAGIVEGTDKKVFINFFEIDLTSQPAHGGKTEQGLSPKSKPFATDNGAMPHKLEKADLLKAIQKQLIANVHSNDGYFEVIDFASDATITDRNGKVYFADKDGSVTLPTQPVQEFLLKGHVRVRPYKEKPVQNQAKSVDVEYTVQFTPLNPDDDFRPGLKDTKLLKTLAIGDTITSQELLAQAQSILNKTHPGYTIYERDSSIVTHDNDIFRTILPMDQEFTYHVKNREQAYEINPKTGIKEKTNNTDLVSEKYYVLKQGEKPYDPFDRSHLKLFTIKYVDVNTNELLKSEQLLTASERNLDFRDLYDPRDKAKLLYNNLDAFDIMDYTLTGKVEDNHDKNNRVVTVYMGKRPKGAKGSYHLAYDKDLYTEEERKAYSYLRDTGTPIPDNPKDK", "assay": "viability-normalized secreted streptokinase activity reduction – plasminogen activation absorbance, OD405, dose response (AID 1914);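 further: secreted streptokinase activity via plasminogen activation per viability signal from cell pellet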", "assay_type": "functional, Streptococcus pyogenes M1 GAS"}, "[4]": {"target": "G-protein coupled receptor 55 (Homo sapiens, UniProt Q9Y2T6)", "sequence (Q9Y2T6 whole entry)": "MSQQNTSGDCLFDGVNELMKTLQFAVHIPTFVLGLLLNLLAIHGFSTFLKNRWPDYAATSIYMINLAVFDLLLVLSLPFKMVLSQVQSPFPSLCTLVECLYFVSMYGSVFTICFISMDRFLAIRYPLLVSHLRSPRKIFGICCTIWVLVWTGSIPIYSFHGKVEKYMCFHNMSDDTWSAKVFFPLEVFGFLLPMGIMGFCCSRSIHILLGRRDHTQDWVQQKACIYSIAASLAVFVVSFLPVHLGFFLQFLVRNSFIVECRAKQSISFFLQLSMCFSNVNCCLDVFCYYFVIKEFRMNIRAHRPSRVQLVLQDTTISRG", "assay": "inhibition of LPI-stimulated GPR55 beta-arrestin translocation – imaging, U2OS, beta-arrestin-GFP, LPI agonist, primary screen (AID 2013);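 further: antagonist potency measured as reduced agonist-driven arrestin aggregation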", "assay_type": "functional"}, "[5]": {"assay": "microbe, parasite or virus in culture", "assay_type": "functional", "details": "Mycobacterium tuberculosis"}, "Streptococcus": {"system": "Streptococcus", "assay": "GAS UMAA2166 growth inhibition – luminescence, BacTiterGlo, counter-screen for streptokinase expression inhibitor project, dose response (AID 1915)", "assay_type": "functional, organism-based"}, "[6]": {"assay": "THP-1 cell cytotoxicity, dose response, cytotoxicity control for non-replicating M. tuberculosis project (AID 489025)", "assay_type": "functional"}, "[7]": {"assay": "HepG2 cell cytotoxicity, dose response, cytotoxicity control for non-replicating M. tuberculosis project (AID 489018)", "assay_type": "functional", "details": "Mycobacterium tuberculosis"}, "[8]": {"assay": "Vero E6 cell cytotoxicity, dose response, cytotoxicity control for non-replicating M. tuberculosis project, secondary assay (AID 492998)", "assay_type": "functional, VeroE6", "details": "Vero C1008"}, "cells": {"assay": "cells", "assay_type": "functional"}, "[9]": {"assay": "NIH3T3 cell viability loss, ATP content – CellTiter-Glo luminescence, cherry-pick, set 2, cytotoxicity control for HSP40 inhibitor project, dose response (AID 624265)", "assay_type": "functional"}, "[10]": {"assay": "rescue of ΔF508 CFTR function, airway epithelium – human bronchial epithelial cells, plate reader, cherry-pick, two tests, dose response (AID 743267)", "assay_type": "functional, cell-based"}, "[11]": {"assay": "viability loss in HepG2 hepatoma cells – cell-based, ATP luminescence, cherry-pick, activator set 2, cytotoxicity control, dose response (AID 1053143)", "assay_type": "functional"}, "Beta-galactosidase": {"target": "Beta-galactosidase (Escherichia coli, UniProt Q8VNN2)", "sequence (Q8VNN2 whole entry)": "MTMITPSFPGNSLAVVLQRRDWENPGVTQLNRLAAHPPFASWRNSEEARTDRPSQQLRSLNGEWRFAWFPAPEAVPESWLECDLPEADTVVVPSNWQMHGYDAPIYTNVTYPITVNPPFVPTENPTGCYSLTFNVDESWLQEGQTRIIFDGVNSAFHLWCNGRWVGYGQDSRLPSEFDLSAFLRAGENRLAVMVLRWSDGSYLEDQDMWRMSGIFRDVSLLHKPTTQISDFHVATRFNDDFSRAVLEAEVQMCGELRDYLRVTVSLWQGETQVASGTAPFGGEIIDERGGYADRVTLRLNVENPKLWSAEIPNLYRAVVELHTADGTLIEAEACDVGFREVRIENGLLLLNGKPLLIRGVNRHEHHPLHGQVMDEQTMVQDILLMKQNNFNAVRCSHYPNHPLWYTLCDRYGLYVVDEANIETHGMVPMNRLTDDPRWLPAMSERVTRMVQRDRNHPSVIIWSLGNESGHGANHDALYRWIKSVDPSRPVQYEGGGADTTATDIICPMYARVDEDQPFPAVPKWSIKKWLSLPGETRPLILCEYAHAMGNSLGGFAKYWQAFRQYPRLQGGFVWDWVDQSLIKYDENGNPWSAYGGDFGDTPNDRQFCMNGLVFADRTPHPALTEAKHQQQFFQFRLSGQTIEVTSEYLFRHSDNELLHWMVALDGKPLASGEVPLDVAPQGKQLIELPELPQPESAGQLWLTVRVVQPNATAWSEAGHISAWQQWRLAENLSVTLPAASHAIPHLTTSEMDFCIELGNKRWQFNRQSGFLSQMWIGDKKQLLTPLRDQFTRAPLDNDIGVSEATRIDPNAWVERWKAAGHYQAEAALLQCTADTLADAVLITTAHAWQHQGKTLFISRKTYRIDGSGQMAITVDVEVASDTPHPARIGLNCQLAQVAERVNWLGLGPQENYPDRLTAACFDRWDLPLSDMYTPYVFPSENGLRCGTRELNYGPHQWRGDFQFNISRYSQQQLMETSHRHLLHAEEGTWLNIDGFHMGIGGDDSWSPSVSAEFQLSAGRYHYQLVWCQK", "assay": "Dose response counterscreen for EBI2 assay utilizing the enzyme, b-galactosidase.", "assay_type": "functional"}, "Paired box protein Pax-8": {"target": "Paired box protein Pax-8 (Homo sapiens, UniProt Q06710)", "sequence (Q06710 whole entry)": "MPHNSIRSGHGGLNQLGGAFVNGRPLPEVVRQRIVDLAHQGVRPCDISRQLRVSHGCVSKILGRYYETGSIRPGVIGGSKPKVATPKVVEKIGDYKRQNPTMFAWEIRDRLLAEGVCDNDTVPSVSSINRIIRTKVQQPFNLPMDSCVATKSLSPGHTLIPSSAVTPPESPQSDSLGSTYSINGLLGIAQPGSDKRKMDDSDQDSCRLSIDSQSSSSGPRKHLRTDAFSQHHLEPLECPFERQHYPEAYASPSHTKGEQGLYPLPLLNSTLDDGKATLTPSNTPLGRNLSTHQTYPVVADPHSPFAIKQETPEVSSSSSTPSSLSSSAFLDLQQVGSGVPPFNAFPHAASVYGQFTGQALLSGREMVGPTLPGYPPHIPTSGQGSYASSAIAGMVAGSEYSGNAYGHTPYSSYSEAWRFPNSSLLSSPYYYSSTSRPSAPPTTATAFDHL", "assay": "PAX8 transcriptional activity inhibition in RMG-I – RMG-I cells, luciferase, cherry-pick, dose response (AID 687027);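 further: luciferase reporter driven by Pax8 target thyroperoxidase promoter measured by SteadyGlo luminescence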", "assay_type": "functional, cell-based"}, "[12]": {"assay": "inhibitors acting on PAX2 in cells – cell-based, plate reader, dry powder samples, selectivity assay for PAX8 inhibitor project, dose response (AID 743048);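 further: HEK293 cells carrying a WT1 promoter luciferase reporter driven by expressed Pax2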", "assay_type": "functional"}, "[13]": {"assay": "COV362 cell viability loss – plate reader, dry powder, SA12, cytotoxicity control for PAX8 inhibitor project, dose response (AID 743144)", "assay_type": "functional, cell-based"}, "[14]": {"assay": "OVCAR-3 cell viability loss – plate reader, dry powder samples, PAX8 inhibitor project, dose response (AID 743044)", "assay_type": "functional, cell-based"}, "[15]": {"assay": "IGROV1 cell killing – plate reader, dry powder samples, PAX8 inhibitor project, dose response (AID 743043)", "assay_type": "functional, cell-based", "details": "IGROV-1"}, "[16]": {"assay": "OVCAR4 cell viability loss – plate reader, dry powder, SA11, cytotoxicity control for PAX8 inhibitor project, dose response (AID 743150)", "assay_type": "functional, cell-based", "details": "OVCAR-4"}, "[17]": {"assay": "COV434 cell viability loss – plate reader, dry powder, SA7, cytotoxicity control for PAX8 inhibitor project, dose response (AID 743145)", "assay_type": "functional, cell-based"}, "[18]": {"assay": "OV-90 cell viability loss – plate reader, dry powder, SA8, PAX8 inhibitor project, dose response (AID 743149)", "assay_type": "functional, cell-based"}, "[19]": {"assay": "PAX8-dependent cell viability loss – plate reader, dry powder, dose response (AID 743049)", "assay_type": "functional, cell-based"}, "CHO": {"system": "CHO", "assay": "CHO cell viability loss, potency – luminescence, cytotoxicity control for TLR9-MyD88 binding inhibitor project, dose response (AID 588339);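 further: CHO cells stably coexpressing TLR9 and MyD88 fusions from primary screen; compound exposure lasted 48 hours before viability readout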", "assay_type": "functional, cell-based, hamster", "details": "Cricetulus griseus"}, "Beta Lactamase": {"target": "Beta Lactamase (Pseudomonas aeruginosa, UniProt Q932Y6)", "sequence (Q932Y6 whole entry)": "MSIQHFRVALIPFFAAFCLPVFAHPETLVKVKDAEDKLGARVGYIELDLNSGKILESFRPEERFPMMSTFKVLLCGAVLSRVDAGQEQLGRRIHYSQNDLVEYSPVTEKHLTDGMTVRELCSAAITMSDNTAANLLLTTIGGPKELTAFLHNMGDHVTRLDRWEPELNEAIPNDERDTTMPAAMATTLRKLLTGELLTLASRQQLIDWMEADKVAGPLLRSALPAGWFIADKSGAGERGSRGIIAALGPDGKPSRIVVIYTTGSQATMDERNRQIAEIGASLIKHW", "assay": "BLA reporter interference, concentration series – BLA reporter cells, FRET fluorescence, artefact control for TLR9-MyD88 binding inhibitor project, dose response (AID 588341)", "assay_type": "cell-based"}, "[20]": {"target": "Photoreceptor-specific nuclear receptor (Homo sapiens, UniProt Q9Y5X4)", "sequence (Q9Y5X4 whole entry)": "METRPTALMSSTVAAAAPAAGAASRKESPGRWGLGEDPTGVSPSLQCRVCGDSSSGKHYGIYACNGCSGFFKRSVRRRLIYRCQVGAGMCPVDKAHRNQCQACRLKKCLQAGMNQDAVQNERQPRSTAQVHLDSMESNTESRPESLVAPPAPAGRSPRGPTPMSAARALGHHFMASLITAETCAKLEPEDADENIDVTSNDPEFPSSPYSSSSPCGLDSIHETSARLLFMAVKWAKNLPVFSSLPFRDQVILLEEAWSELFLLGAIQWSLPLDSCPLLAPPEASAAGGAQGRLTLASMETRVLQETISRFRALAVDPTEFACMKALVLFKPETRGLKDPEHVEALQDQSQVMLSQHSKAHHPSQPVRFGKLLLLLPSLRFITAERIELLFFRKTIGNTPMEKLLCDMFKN", "assay_type": "functional, cell-based"}, "[21]": {"assay": "Late stage assay provider counterscreen for TLR9 inhibitors: absorbance-based cell-based MTT cytotoxicity assay.", "assay_type": "functional"}, "[22]": {"assay": "blockers of FN fibrillogenesis by fibroblasts – AH1F cells, Alexa488-FN fluorescence, cherry-picks, dose response (AID 1035475)", "assay_type": "functional, cell-based"}, "[23]": {"target": "Potassium channel subfamily K member 9 (Homo sapiens, UniProt Q9NPC2)", "sequence (Q9NPC2 whole entry)": "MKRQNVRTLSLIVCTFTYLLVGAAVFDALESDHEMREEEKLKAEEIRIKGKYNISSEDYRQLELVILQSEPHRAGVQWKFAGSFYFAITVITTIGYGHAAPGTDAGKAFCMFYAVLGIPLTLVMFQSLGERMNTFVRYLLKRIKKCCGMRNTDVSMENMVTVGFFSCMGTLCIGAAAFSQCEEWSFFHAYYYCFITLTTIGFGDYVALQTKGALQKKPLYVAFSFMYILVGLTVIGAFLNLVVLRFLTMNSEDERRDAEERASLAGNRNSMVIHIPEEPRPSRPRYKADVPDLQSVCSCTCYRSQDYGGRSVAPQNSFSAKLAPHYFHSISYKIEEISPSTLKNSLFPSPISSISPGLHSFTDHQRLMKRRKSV", "assay": "KCNK9 flux blockade, concentration-response – cell-based, FluxOR thallium flux, selectivity assay for TASK1 inhibitor project, SAR follow-up (AID 652211)", "assay_type": "functional"}, "[24]": {"assay": "cervical cancer cell viability loss – HeLa, 24 h, plate reader, powder samples, set 3, cytotoxicity control, dose response (AID 651864)", "assay_type": "functional, cell-based"}, "[25]": {"assay": "HeLa cell viability loss – 24 h, dry powder, set 2, cytotoxicity control, dose response (AID 651774)", "assay_type": "functional, cell-based"}, "[26]": {"assay": "inhibitors of non-replicating M. tuberculosis, dose response, luciferase, dry powder (AID 651619)", "assay_type": "functional", "details": "Mycobacterium tuberculosis"}, "[27]": {"assay": "HeLa cell viability loss – plate reader, dry powder, cytotoxicity control, dose response (AID 651946)", "assay_type": "functional, cell-based"}, "[28]": {"assay": "viability loss in HEK293T cells – cell-based, CellTiter-Glo luminescence, dry powder, set 6, cytotoxicity control, dose response (AID 651949)", "assay_type": "functional", "details": "HEK293"}, "[29]": {"assay": "inhibitors of non-replicating M. tuberculosis, dose response, luciferase, dry powder (AID 651620)", "assay_type": "functional", "details": "Mycobacterium tuberculosis"}, "[30]": {"assay": "growth inhibition of replicating M. tuberculosis, dose response, counter-screen, dry powder, IC90 (AID 651617)", "assay_type": "functional", "details": "Mycobacterium tuberculosis"}}, "note": "Activity calls are given as the source filed them.", "data": [{"molecule": "NC(=O)N=Nc1c2nc3ccccc3[nH]c-2c2ccccc12", "values": [{"measurement": "EC50", "setting": "[1]", "result": "13 µM (active)"}, {"measurement": "EC50", "setting": "[2]", "result": "> 120 µM (not active)"}, {"measurement": "EC50", "setting": "[3]", "result": "7.71 µM (active)"}, {"measurement": "EC50", "setting": "H4", "result": "> 120 µM (not active)"}, {"measurement": "EC50", "setting": "Streptokinase A", "result": "46.2 µM (active)"}, {"measurement": "IC50", "setting": "[4]", "result": "2.88 µM (active)"}, {"measurement": "CC50", "setting": "[5]", "result": "7.97 µM (active)"}, {"measurement": "EC50", "setting": "Streptococcus", "result": "> 150 µM (not active)"}, {"measurement": "CC50", "setting": "[6]", "result": "23.5 µM (active)"}, {"measurement": "CC50", "setting": "[7]", "result": "> 20 µM (active)"}, {"measurement": "CC50", "setting": "[8]", "result": "11.9 µM (active)"}, {"measurement": "IC50", "setting": "cells", "result": "11.1 µM (active)"}, {"measurement": "AbsAC35_uM", "setting": "[9]", "result": 58.66, "unit": "µM"}, {"measurement": "AC50", "setting": "[10]", "result": "8.41 µM (active)"}]}, {"molecule": "CCC(=O)Nc1sc(C(=O)Nc2ccccc2)c(C)c1C(=O)OC", "values": [{"measurement": "AC50", "setting": "[11]", "result": "26 µM (active)"}]}, {"molecule": "O=C(c1cc(-c2cccs2)on1)N1CCN(C(c2ccccc2)c2ccccc2)CC1", "values": [{"measurement": "IC50", "setting": "Beta-galactosidase", "result": "> 80 µM (inactive)"}, {"measurement": "AC50", "setting": "Paired box protein Pax-8", "result": "0.733 µM (active)"}, {"measurement": "AC50", "setting": "[12]", "result": "49.9 µM (active)"}, {"measurement": "AC50", "setting": "[13]", "result": "48.4 µM (active)"}, {"measurement": "AC50", "setting": "[14]", "result": "60.2 µM (active)"}, {"measurement": "AC50", "setting": "[15]", "result": "44.1 µM (active)"}, {"measurement": "AC50", "setting": "[16]", "result": "44.4 µM (active)"}, {"measurement": "AC50", "setting": "[17]", "result": "80.1 µM (active)"}, {"measurement": "AC50", "setting": "[18]", "result": "> 100 µM (inactive)"}, {"measurement": "AC50", "setting": "[19]", "result": "9.18 µM (active)"}]}, {"molecule": "O=S(=O)(/C=C/C=C/S(=O)(=O)c1ccccc1)c1ccccc1", "values": [{"measurement": "IC50", "setting": "CHO", "result": "0.959 µM (active)"}, {"measurement": "IC50", "setting": "Beta Lactamase", "result": "> 49.8 µM (inactive)"}, {"measurement": "IC50", "setting": "[20]", "result": "1.61 µM (active)"}, {"measurement": "CC50", "setting": "[21]", "result": "0.59 µM (active)"}]}, {"molecule": "CC(=O)Nc1cccc(-c2ccnc3c2CC(C)(C(=O)Nc2cccc(C(F)(F)F)c2)O3)c1", "note": "(stereo not drawn)", "values": [{"measurement": "AC50", "setting": "[22]", "result": "22.7 µM (active)"}]}, {"molecule": "Cc1cccc(C(=O)Nc2cccc(NC(=O)c3ccco3)c2)c1", "values": [{"measurement": "IC50", "setting": "[23]", "result": "1.67 µM (active)"}]}, {"molecule": "CCC(CC)NC(=O)Cc1ccc(-c2ccccc2)cc1", "values": [{"measurement": "AC50", "setting": "[24]", "result": "> 160 µM (inactive)"}, {"measurement": "AC50", "setting": "[25]", "result": "> 70 µM (inactive)"}]}, {"molecule": "COc1cccc(-c2nnc(SCc3ccccn3)o2)c1", "values": [{"measurement": "IC90", "setting": "[26]", "result": "4 µM (active)"}, {"measurement": "AC50", "setting": "[27]", "result": "> 52 µM (inactive)"}, {"measurement": "AC50", "setting": "[28]", "result": "> 52 µM (inactive)"}, {"measurement": "IC90", "setting": "[29]", "result": "4 µM (active)"}, {"measurement": "IC90", "setting": "[30]", "result": "125 µM (active)"}]}]}
